According to patent US11884905B2, “Fluidic chip for cell culture use, culture vessel, and culture method” (University Public Corporation Osaka, priority 2017, dated 2024):

Tests used:
Format in all cases: cell-based
Details in all cases: culture solution containing 20 μM doxorubicin, 24 hours, optical microscope
[1] = system: human hepatoma-derived cells; experiment: Fluidic chip three-dimensional culture with doxorubicin, hepatoma cells (upstream)
Procedure: (§1) Cardiac toxicity known as efficacy and side effect of doxorubicin widely used as an anticancer drug was assessed using the fluidic chip for cell culture use according to the present invention.
(§2) First, five culture vessels 9a each enclosing human hepatoma-derived cells were manufactured, three culture vessels 9b each enclosing human umbilical vein endothelial cells were manufactured, three culture vessels 9c each enclosing human myocardial cells were manufactured, three culture vessels 9d each enclosing human bronchial epithelial cells were manufactured, and three culture vessels 9e each enclosing human fibroblast cells were manufactured. These culture vessels 9a to 9e were subjected to preparatory culture (cultured in three dimensions) for two days in wells 33 of the multi-well plate 32, respectively. The culture vessels were manufactured in the same manner as in the cell culture experiment (1), except that the kinds of the cells to be cultured were changed. FIG. 15 illustrates the photograph of the multi-well plate 32 after the preparatory culture.
(§3) Thereafter, the culture vessels 9a to 9e were set on an optical microscope, and the cultured cells were observed. […] Then, sample cells in good condition in shape were only extracted. […]

human myocardial cells = experiment: Fluidic chip three-dimensional culture with doxorubicin, cardiac toxicity on myocardial cells downstream of hepatoma cells
Procedure: as §1, §2, §3

[2] = system: human bronchial epithelial cells; experiment: Fluidic chip three-dimensional culture with doxorubicin, bronchial epithelial cells downstream of hepatoma cells (control)
Procedure: as §1, §2, §3

human fibroblast cells = experiment: Fluidic chip three-dimensional culture with doxorubicin, fibroblast cells downstream of hepatoma cells (control)
Procedure: as §1, §2, §3

change in shape / growth of fibroblast cells (human fibroblast cells): the fibroblast cells continued to grow
SMILES: COc1cccc2c1C(=O)c1c(O)c3c(c(O)c1C2=O)C[C@@](O)(C(=O)CO)C[C@@H]3O[C@H]1C[C@H](N)[C@H](O)[C@H](C)O1 [doxorubicin]
change in shape of hepatoma cells (infiltrating portions), efficacy as anticancer drug [1]: the infiltrating portions disappear within twenty-four hours
change in shape of myocardial cells (cardiac toxicity) (human myocardial cells): entirely reduced in size
change in shape / growth of bronchial epithelial cells [2]: a branch of a bronchus was wide and continued to grow
